In ChEMBL document CHEMBL2321712 (ACS Med Chem Lett, 2013):
The source made the active and inactive calls. The rule behind the calls is not given here.

Experiments:
[1] = target: Cyclin-dependent kinase 4 (Homo sapiens, UniProt P11802); test: Inhibition of CDK4 (unknown origin); type: single protein
[2] = target: Cyclin-dependent kinase 2 (Homo sapiens, UniProt P24941); test: Inhibition of CDK2 (unknown origin); type: single protein
[3] = target: Fibroblast growth factor receptor 1 (Homo sapiens, UniProt P11362); test: Inhibition of FGFR1 (unknown origin); type: single protein
[4] = target: Vascular endothelial growth factor receptor 2 (Homo sapiens, UniProt P35968); test: Inhibition of KDR (unknown origin); type: single protein
[5] = Oral bioavailability in rat at 50 mg/kg; type: ADME, organism-based; conditions: in vivo
Mus musculus [6] = test: Toxicity in human MDA-MB-231 cells xenografted mouse assessed as changes in body weight and gross observation at 25 to 50 mg/kg, po qd up to 32 days; type: organism-based; set-up: dose 25-50 mg/kg, route oral; conditions: in vivo, 768 h
[7] = AUC (0 to 24 hrs) in monkey at 10 mg/kg, po; type: ADME, organism-based, Macaca mulatta; set-up: time < 24 hr, dose 10 mg/kg, route oral; conditions: rhesus monkey, plasma
[8] = Oral bioavailability in monkey at 10 mg/kg; type: ADME, organism-based, Macaca mulatta; conditions: rhesus monkey, in vivo
HUVEC [9] = test: Antiangiogenic activity in HUVEC assessed as inhibition of VEGF-induced cell proliferation; type: functional, cell-based; conditions: Homo sapiens
MDA-MB-231 [10] = test: Antitumor activity against human MDA-MB-231 cells xenografted in mouse assessed as increase in mouse survival at 25 to 50 mg/kg, po qd up to 32 days; type: functional; conditions: dose mg/kg 25-50
[11] = Antiproliferative activity against human breast cancer cells by MTT assay; type: functional, cell-based; conditions: Cancer cell lines
[12] = Volume of distribution at steady state in monkey at 1 mg/kg, iv; type: ADME, organism-based, Macaca mulatta; set-up: dose 1 mg/kg, route intravenous; conditions: rhesus monkey, in vivo, read-out: Vdss
[13] = Cmax in rat at 50 mg/kg, po; type: ADME, organism-based; set-up: dose 50 mg/kg, route oral; conditions: in vivo
[14] = Terminal half life in mouse at 5 mg/kg, iv; type: ADME, organism-based; set-up: dose 5 mg/kg, route intravenous; conditions: in vivo, read-out: beta t1/2 (converted)
MDA-MB-231 [15] = test: Antitumor activity against human MDA-MB-231 cells xenografted in mouse assessed as tumor regression at 25 mg/kg, po qd up to 32 days; type: functional, organism-based; set-up: dose 25 mg/kg
22Rv1 (Homo sapiens) = test: Antitumor activity against human 22Rv1 cells xenografted in mouse assessed as tumor growth inhibition at 25 to 50 mg/kg, po qd up to 32 days; conditions: dose mg/kg 25-50
Mus musculus [16] = test: Toxicity in human HCT116 cells xenografted mouse assessed as changes in body weight and gross observation at 25 to 50 mg/kg, po qd up to 32 days; type: organism-based, HCT-116; set-up: dose 25-50 mg/kg, route oral; conditions: in vivo, 768 h
MDA-MB-231 [17] = test: Antitumor activity against human MDA-MB-231 cells xenografted in mouse assessed as tumor growth inhibition at 50 mg/kg, po qd up to 32 days; type: functional, organism-based; set-up: dose 50 mg/kg
A549 [18] = test: Antitumor activity against human A549 cells xenografted in mouse assessed as tumor growth inhibition at 1.56 mg/kg, po qd up to 32 days; type: functional, organism-based; set-up: dose 1.56 mg/kg
HCT-116 [19] = test: Antitumor activity against human HCT116 cells xenografted in mouse assessed as tumor growth inhibition at 1.56 mg/kg, po qd up to 32 days; type: functional, organism-based; set-up: dose 1.56 mg/kg
Mus musculus [20] = test: Toxicity in human A549 cells xenografted mouse assessed as changes in body weight and gross observation at 25 to 50 mg/kg, po qd up to 32 days; type: organism-based; set-up: dose 25-50 mg/kg, route oral; conditions: in vivo, 768 h
[21] = Total clearance in mouse at 5 mg/kg, iv; type: ADME, organism-based; set-up: dose 5 mg/kg, route intravenous; conditions: in vivo
[22] = Antiproliferative activity against human oral epidermoid cancer cells by MTT assay; type: functional, cell-based; conditions: Cancer cell lines
[23] = Oral bioavailability in mouse at 25 mg/kg; type: ADME, organism-based; conditions: in vivo
[24] = AUC (0 to 24 hrs) in rat at 50 mg/kg, po; type: ADME, organism-based; set-up: time < 24 hr, dose 50 mg/kg, route oral; conditions: plasma
[25] = Cmax in monkey at 10 mg/kg, po; type: ADME, organism-based, Macaca mulatta; set-up: dose 10 mg/kg, route oral; conditions: rhesus monkey, in vivo
LoVo = test: Antitumor activity against human LoVo cells xenografted in mouse assessed as increase in mouse survival at 25 to 50 mg/kg, po qd up to 32 days; type: functional; conditions: dose mg/kg 25-50
[26] = Antiproliferative activity against human colon cancer cells by MTT assay; type: functional, cell-based; conditions: Cancer cell lines
[27] = Terminal half life in monkey at 1 mg/kg, iv; type: ADME, organism-based, Macaca mulatta; set-up: dose 1 mg/kg, route intravenous; conditions: rhesus monkey, in vivo, read-out: beta t1/2 (converted)
Mus musculus [28] = test: Toxicity in human LoVo cells xenografted mouse assessed as changes in body weight and gross observation at 25 to 50 mg/kg, po qd up to 32 days; type: organism-based; set-up: dose 25-50 mg/kg, route oral; conditions: in vivo, 768 h
HUVEC [29] = test: Antiangiogenic activity in HUVEC assessed as inhibition of bFGF-induced cell proliferation; type: functional, cell-based; conditions: Homo sapiens
[30] = Total clearance in monkey at 1 mg/kg, iv; type: ADME, organism-based, Macaca mulatta; set-up: dose 1 mg/kg, route intravenous; conditions: rhesus monkey, in vivo
A549 [31] = test: Antitumor activity against human A549 cells xenografted in mouse assessed as increase in mouse survival at 25 to 50 mg/kg, po qd up to 32 days; type: functional; conditions: dose mg/kg 25-50
MDA-MB-231 [32] = test: Antitumor activity against human MDA-MB-231 cells xenografted in mouse assessed as tumor regression at 50 mg/kg, po qd up to 32 days; type: functional, organism-based; set-up: dose 50 mg/kg
[33] = Tmax in mouse at 25 mg/kg, po; type: ADME, organism-based; set-up: dose 25 mg/kg, route oral; conditions: in vivo
[34] = Total clearance in rat at 5 mg/kg, iv; type: ADME, organism-based; set-up: dose 5 mg/kg, route intravenous; conditions: in vivo
[35] = Antiproliferative activity against human melanoma cells by MTT assay; type: functional, cell-based; conditions: Melanoma cell
[36] = Cmax in mouse at 25 mg/kg, po; type: ADME, organism-based; set-up: dose 25 mg/kg, route oral; conditions: in vivo
HCT-116 [37] = test: Antitumor activity against human HCT116 cells xenografted in mouse assessed as increase in mouse survival at 25 to 50 mg/kg, po qd up to 32 days; type: functional; conditions: dose mg/kg 25-50
[38] = Antiproliferative activity against human lung cancer cells by MTT assay; type: functional, cell-based; conditions: Cancer cell lines
[39] = Terminal half life in rat at 5 mg/kg, iv; type: ADME, organism-based; set-up: dose 5 mg/kg, route intravenous; conditions: in vivo, read-out: beta t1/2 (converted)
[40] = Tmax in rat at 50 mg/kg, po; type: ADME, organism-based; set-up: dose 50 mg/kg, route oral; conditions: in vivo
[41] = AUC (0 to 24 hrs) in mouse at 25 mg/kg, po; type: ADME, organism-based; set-up: time < 24 hr, dose 25 mg/kg, route oral; conditions: plasma
[42] = Volume of distribution at steady state in mouse at 5 mg/kg, iv; type: ADME, organism-based; set-up: dose 5 mg/kg, route intravenous; conditions: in vivo, read-out: Vdss
[43] = Antiproliferative activity against human prostate cancer cells by MTT assay; type: functional, cell-based; conditions: Cancer cell lines
HUVEC [44] = test: Antiangiogenic activity in HUVEC assessed as inhibition of PDGF-induced cell proliferation; type: functional, cell-based; conditions: Homo sapiens
Aurora kinase A = target: T1, Aurora kinase A (Homo sapiens, UniProt O14965); test: Inhibition of aurora-A (unknown origin)
T1 sequence (O14965 whole entry): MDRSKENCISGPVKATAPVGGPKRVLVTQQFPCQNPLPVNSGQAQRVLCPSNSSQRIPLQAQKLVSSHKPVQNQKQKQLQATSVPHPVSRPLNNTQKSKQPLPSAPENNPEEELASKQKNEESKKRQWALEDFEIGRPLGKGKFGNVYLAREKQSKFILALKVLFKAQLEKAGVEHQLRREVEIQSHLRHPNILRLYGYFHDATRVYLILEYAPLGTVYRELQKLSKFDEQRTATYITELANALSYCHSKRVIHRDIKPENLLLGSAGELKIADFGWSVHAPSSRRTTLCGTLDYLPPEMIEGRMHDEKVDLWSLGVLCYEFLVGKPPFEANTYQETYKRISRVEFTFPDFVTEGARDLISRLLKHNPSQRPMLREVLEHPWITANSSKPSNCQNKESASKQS

[45] = Volume of distribution at steady state in rat at 5 mg/kg, iv; type: ADME, organism-based; set-up: dose 5 mg/kg, route intravenous; conditions: in vivo, read-out: Vdss
[46] = Tmax in monkey at 10 mg/kg, po; type: ADME, organism-based, Macaca mulatta; set-up: dose 10 mg/kg, route oral; conditions: rhesus monkey, in vivo

Fibroblast growth factor receptor 1, sequence (P11362 whole entry): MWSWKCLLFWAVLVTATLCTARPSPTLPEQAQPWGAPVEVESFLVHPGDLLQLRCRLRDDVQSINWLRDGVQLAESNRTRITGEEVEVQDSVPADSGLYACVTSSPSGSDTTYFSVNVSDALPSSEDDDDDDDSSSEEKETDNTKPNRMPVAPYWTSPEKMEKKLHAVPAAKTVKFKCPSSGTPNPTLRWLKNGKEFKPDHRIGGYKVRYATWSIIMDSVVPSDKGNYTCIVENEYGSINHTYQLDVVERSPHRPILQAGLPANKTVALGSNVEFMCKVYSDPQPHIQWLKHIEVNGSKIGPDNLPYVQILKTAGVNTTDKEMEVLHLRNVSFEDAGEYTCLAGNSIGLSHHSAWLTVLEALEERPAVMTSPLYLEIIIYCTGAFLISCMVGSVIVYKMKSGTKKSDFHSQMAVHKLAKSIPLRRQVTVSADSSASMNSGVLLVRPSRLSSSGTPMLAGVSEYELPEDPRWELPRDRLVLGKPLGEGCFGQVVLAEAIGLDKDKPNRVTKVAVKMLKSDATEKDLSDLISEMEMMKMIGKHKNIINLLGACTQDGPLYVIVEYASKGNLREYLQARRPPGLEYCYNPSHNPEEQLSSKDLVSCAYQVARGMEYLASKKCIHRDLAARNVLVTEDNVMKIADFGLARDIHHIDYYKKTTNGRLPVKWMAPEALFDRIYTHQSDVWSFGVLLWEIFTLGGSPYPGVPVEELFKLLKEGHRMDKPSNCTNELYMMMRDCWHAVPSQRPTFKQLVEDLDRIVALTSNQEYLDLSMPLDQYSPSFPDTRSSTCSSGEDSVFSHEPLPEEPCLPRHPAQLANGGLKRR
Vascular endothelial growth factor receptor 2, sequence (P35968 whole entry): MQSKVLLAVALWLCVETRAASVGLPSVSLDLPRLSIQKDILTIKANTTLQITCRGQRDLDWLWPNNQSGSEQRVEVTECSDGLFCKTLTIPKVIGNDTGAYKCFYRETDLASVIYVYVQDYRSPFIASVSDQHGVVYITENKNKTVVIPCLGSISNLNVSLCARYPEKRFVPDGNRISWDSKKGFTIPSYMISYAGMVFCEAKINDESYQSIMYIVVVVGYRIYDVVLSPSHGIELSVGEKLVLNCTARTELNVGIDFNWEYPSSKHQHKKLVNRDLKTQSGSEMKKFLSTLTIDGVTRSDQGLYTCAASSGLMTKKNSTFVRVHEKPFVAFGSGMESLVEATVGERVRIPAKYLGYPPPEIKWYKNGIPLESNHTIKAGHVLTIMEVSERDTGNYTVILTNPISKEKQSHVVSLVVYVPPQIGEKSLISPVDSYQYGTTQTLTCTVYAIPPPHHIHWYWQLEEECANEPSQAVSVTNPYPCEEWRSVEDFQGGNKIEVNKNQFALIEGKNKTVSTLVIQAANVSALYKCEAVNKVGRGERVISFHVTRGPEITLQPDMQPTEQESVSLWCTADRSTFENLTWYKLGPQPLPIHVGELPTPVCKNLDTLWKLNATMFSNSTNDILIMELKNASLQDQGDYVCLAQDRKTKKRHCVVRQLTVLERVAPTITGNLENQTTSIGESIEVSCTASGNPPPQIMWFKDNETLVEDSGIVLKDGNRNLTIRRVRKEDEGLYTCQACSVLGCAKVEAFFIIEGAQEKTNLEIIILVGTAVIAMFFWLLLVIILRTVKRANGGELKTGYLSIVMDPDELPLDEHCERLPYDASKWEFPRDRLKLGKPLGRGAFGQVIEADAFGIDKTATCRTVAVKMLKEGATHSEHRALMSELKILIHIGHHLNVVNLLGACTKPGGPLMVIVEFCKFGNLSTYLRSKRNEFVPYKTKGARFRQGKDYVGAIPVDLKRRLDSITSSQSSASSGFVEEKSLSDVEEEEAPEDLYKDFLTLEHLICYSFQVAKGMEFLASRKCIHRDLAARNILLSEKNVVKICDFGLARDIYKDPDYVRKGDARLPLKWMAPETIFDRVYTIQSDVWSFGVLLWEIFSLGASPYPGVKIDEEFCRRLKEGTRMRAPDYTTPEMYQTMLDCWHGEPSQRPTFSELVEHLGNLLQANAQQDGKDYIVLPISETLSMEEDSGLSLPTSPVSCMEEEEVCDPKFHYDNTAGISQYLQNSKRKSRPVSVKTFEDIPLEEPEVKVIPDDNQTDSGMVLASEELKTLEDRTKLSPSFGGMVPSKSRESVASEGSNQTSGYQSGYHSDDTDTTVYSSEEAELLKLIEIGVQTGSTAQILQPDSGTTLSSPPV
Cyclin-dependent kinase 4, sequence (P11802 whole entry): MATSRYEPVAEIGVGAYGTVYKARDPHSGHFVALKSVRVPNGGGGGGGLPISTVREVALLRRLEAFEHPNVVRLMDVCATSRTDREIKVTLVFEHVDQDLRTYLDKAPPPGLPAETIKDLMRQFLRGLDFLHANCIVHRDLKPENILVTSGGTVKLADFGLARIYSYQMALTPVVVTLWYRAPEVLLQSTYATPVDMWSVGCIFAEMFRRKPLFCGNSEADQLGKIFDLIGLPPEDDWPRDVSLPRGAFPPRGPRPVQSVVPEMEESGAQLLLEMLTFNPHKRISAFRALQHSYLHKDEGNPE

Cc1[nH]nc2c1N=C(c1ccccc1Cl)c1cc(N)ccc1N2
IC50 [1]: 303 nM | IC50 [2]: 88 nM | IC50 [3]: 50 nM | IC50 [4]: 34 nM

COc1cc2c(cc1F)C(c1ccccc1Cl)=Nc1c(n[nH]c1C)N2 [RG-1530]
bioavailability [5]: 88.7% | Activity (Mus musculus [6]): Non-toxic | AUC(0-t) at 24 h [7]: 4820 ng·h/mL | bioavailability [8]: 22.1% | IC50 (HUVEC [9]): 49 nM | Survival (MDA-MB-231 [10]): >=25% | IC50 [11]: 200 nM | Vd [12]: 1.59 L/kg | Cmax [13]: 5360 ng/mL | half-life [14]: 4.32 h | Activity (MDA-MB-231 [15]): Active | TGI (22Rv1 (Homo sapiens)): 98% | Activity (Mus musculus [16]): Non-toxic | TGI (MDA-MB-231 [17]): Active | TGI (A549 [18]): inactive | TGI (HCT-116 [19]): inactive | Activity (Mus musculus [20]): Non-toxic | clearance [21]: 8.8 mL/min/kg | IC50 [22]: 200 nM | IC50 [3]: 28 nM | bioavailability [23]: 96.9% | AUC(0-t) at 24 h [24]: 86300 ng·h/mL | Cmax [25]: 406 ng/mL | Survival (LoVo): >=25% | IC50 [26]: 200 nM | half-life [27]: 3.83 h | Activity (Mus musculus [28]): Non-toxic | IC50 (HUVEC [29]): 118 nM | clearance [30]: 7.82 mL/min/kg | Survival (A549 [31]): >=25% | Activity (MDA-MB-231 [32]): Active | Tmax [33]: 2 h | clearance [34]: 8.78 mL/min/kg | IC50 [35]: 200 nM | Cmax [36]: 5070 ng/mL | Survival (HCT-116 [37]): >=25% | IC50 [38]: 200 nM | half-life [39]: 4.7 h | Tmax [40]: 4 h | AUC(0-t) at 24 h [41]: 46700 ng·h/mL | Vd [42]: 3.12 L/kg | IC50 [43]: 200 nM | IC50 (HUVEC [44]): 688 nM | IC50 (Aurora kinase A): 58 nM | Vd [45]: 3.22 L/kg | Tmax [46]: 4 h
